Measurements published in patent US20250204515A1, “Heparanase Inhibition for Graft Protection” (University of Pittsburgh - Of the Commonwealth System of …, priority 2022, published 2025).

Columns and labels:
[1] = test system: human lung microvascular endothelial cells (HLMVECs); experiment: In-vitro cellular toxicity test for HPSE inhibitor candidates; conditions: HLMVECs, 24 hours
Procedure: In-vitro cellular toxicity test for HPSE Inhibitor candidates: Human lung microvascular endothelial cells (HLMVECs) were obtained from the American Type Culture Collection (Rockville, MD, USA). Cells were cultured in a humidified incubator at 37° C. and 5% CO2 and grown in endothelial growth medium (EGM™-2 Endothelial Cell Growth Medium-2, Lonza, Basel, Switzerland) supplemented with 2% heat-inactivated fetal bovine serum and 0.04% hydrocortisone. Cell media was replaced every 48 hours, and the cells were split upon 80-90% confluence.
Final tested concentrations of HPSE inhibitors were calculated based upon repeatable in vitro dose-response studies. After 24 hours incubation, cell viability was confirmed by Trypan blue exclusion assay. Total mRNA was isolated using Trizol (Thermo Fisher Scientific Inc., Waltham, MA) and relative messenger RNA (mRNA) expression levels of hemeoxygenase-1 (HO-1), interleukin (IL)-6, tumor necrosis factor (TNF)-α, monocyte chemoattractant protein (MCP)-1, B-cell lymphoma 2 Associated X (Bax), B-cell lymphoma 2 (Bcl-2), B-cell lymphoma-extra-large (Bcl-xL) were quantified by SYBR Green 2-step, real-time, reverse transcription-polymerase chain reaction (RT-PCR). Relative gene expression levels were normalized to mRNA expression of glyceraldehyde-3-phosphate dehydrogenase (GAPDH) and compared to relative mRNA expression levels in control-treated HLMVEC.

heparanase (HPSE) = experiment: In vitro β-D-glucuronidase activity assay (4-MUG substrate); conditions: in vitro, FIG. 8
Procedure: In vitro β-D-glucuronidase activity assay Heparanase activity was measured via β-Glucuronidase activity assay using 4-methylumbelliferyl-β-D-glucuronide (4-MUG) substrate (Millipore-Sigma). As a source of enzymes, platelet rich plasma (PRP) obtained from rat whole blood or rat lung whole tissue lysate, was used. […] Fluorescence (λex 360 nm/λem 460 nm) was continuously measured for 60 minutes using a fluorescence microplate reader (BioTech Synergy HTX, Agilent Technologies, Santa Clara, CA).

[2] = test system: HPSE1, MMP2, IL-6, IL-1β, TNF-α mRNA; IκB-α; experiment: Real-time RT-PCR and western blotting in rat lung tissue after 4 hours of EVLP
Procedure: (§1) Graft tissues collected after 4 hours of EVLP and 2 hours after reperfusion were examined for relative mRNA expression levels of interleukin (IL)-6, IL-1, tumor necrosis factor (TNF)-α, and glyceraldehyde-3-phosphate dehydrogenase (GAPDH). Gene expression levels were normalized to GAPDH mRNA levels.
Western blotting: Total isolated proteins were extracted/resolved by 10% SDS-PAGE followed by transfer to 0.2 μm nitrocellulose membranes (Bio-Rad Laboratories, Hercules, CA, USA). Membranes were blocked with 5% non-fat milk at room temperature for 2 hours and then incubated overnight at 4° C. with the following primary antibodies: inhibitor of KB-α (IκB-α; #9242, Cell Signaling Technology, Inc., Danvers, MA) and β-actin (#A1978, Millipore-Sigma). Membranes were then incubated with either goat anti-mouse IgG (H+L) (#31430, Thermo Fisher Scientific Inc.; 1:5000) or goat anti-rabbit IgG (H+L) (#31460, Thermo Fisher Scientific Inc.; 1:3000) horseradish peroxidase-conjugated polyclonal secondary antibodies at room temperature for 2 hours. Proteins were visualized using an enhanced chemiluminescence kit (Abcam), and protein bands were imaged and analyzed using Image Lab software (Version 6.0; Bio-Rad Laboratories, Inc., Hercules, CA). The intensities of protein bands were quantitated by Image J software (National Institutes of Health, Bethesda, MD).

[3] = test system: glycosaminoglycans (GAGs), syndecan-1; experiment: Glycocalyx shedding in rat lungs during EVLP (GAGs, syndecan-1 ELISA, immunofluorescence)
Procedure: Syndecan-1 ELISA: Syndecan-1 concentrations in EVLP perfusate were quantitated using ELISA (Immunotag™ Rat Syndecan-1 ELISA, G-Biosciences, Geno Technology, Inc., St. Louis, MO). ELISA was performed according to the manufacturer's instructions using perfusate samples acquired after 4 hours of EVLP.
Determination of glycosaminoglycans (GAGS): The concentration of GAGs in rat EVLP perfusate at 4 hours was quantitated using 1,9-dimethylmethylene blue (DMMB, Millipore Sigma). The DMMB solution (pH˜3.0) was prepared by dissolving 16 mg/I DMMB in distilled H2O containing 3.04 g/I glycine, 1.6 g/l NaCl and 95 ml 0.1 M acetic acid. Briefly, 1 ml DMMB solution was mixed with 100 μl EVLP perfusate then incubated for 18 h at room temperature. The tubes were then centrifuged at 14,000 rpm for 20 min at 4° C. Supernatants were carefully decanted, 100 μl dissolvent buffer (4 M guanidine hydrochloride, 50 mM sodium acetate, 10% propan-1-ol, pH 6.8) was added to each pellet, and the tubes were incubated at 40° C. and vortexed until GAG-DMMB pellets were completely dissolved. GAG content in each sample was measured spectrophotometrically at 656 nm.
(§2) Tissue staining and histopathological analysis: Formalin-fixed, paraffin-embedded lung tissues collected 2 hours after transplantation were sectioned to 4 μm thickness and stained with hematoxylin and eosin. In parallel, sections of tissue collected after 4 hours of EVLP were stained for immunofluorescence imaging using primary antibodies for syndecan-1 (DL-101) (#sc-12765, Santa Cruz) and caveolin-1 (#3238, Cell Signaling Technology, Danvers, MA) and with Hoechst 33342 dye (Thermo Scientific). Donkey Cy3-conjugated anti-mouse IgG (#AP192C, MilliporeSigma, Burlington, MA) and Cy5-conjugated goat anti-rabbit IgG (#A10523, Thermo Scientific) secondary antibodies were used to detect primary antibodies. Stained slides were scanned with a whole-slide image scanner (Axio Scan.Z1; Carl Zeiss AB, Oberkochen, Germany) and analyzed with digital image processing software (ZEN lite blue edition; Carl Zeiss).

rat lung grafts = experiment: Rat orthotopic left lung transplantation following EVLP; type: in vivo
Procedure: Rat orthotopic left lung transplantation following EVLP: Orthotopic, single-lung transplantation of the left lung was performed using the 3-cuff method. After EVLP for 4 hours, the lungs were cooled with 4° C. Perfadex on the EVLP system and stored at 4° C. for 1 hour prior to transplantation. The recipient animals were sacrificed 2 hours after reperfusion. When analyzing graft function, the native lung was clamped, 100% 02 was administered for 5 minutes through a ventilator, and the recipient's blood was sampled from the graft pulmonary vein for blood gas analysis.
as §1, §2

rat lungs = experiment: Rat EVLP for 4 hours with HPSE inhibitors in the perfusate: physiology, endothelial barrier, edema; conditions: heparin 1000-U/hour or SF4 1 μM in perfusate
Procedure: In the heparin group, 1000-U of heparin were initially added to the EVLP perfusate, then 1000-U of heparin were administered every hour during EVLP. […] Two control conditions were included in the experimental protocol: 1) sham controls (Sham) were lungs not placed on EVLP and 2) untreated controls (Control) were lungs placed on EVLP without HPSE inhibitor treatment. EVLP physiology, endothelial integrity, inflammation and glycocalyx preservation for EVLP lungs and post-transplant lung grafts were investigated across all treatment regimens.
Ex vivo lung perfusion in rats: EVLP was performed using a commercially-available rodent EVLP system (IL-2 Isolated Perfused Rat or Guinea Pig Lung System; Harvard apparatus, Holliston, MA). Acellular Steen solution was used for EVLP perfusate and medicated with methylprednisolone (Solu-Medrol®; Pfizer, Inc., New York, NY) and cephalosporin (Cefazolin; WG critical care LLC, Paramus, NJ) equally in all experimental groups. […] Pulmonary artery pressure, peak airway pressure, and airway flow were monitored continuously, and dynamic lung compliance (Cdyn) and pulmonary vascular resistance (PVR) were analyzed.
Evaluation of endothellal barrier Integrity After 4 hours of EVLP, 60 mg of Evans blue dye (EBD, Millipore-Sigma, Burlington, MA) was administered into the perfusate to assess vascular endothelial permeability. After 30 minutes of perfusion, the lung vascular bed was rinsed with 20 ml of phosphate-buffered saline (PBS), and slices of lungs were incubated in formamide (Millipore Sigma) overnight at 60° C. Absorbance of the extractant was measured at 620 nm, and EBD was normalized to dry-tissue weight.
Wet-to-Dry (W/D) weight ratio: Lung tissues collected 2 hours after transplant were immediately weighed then placed in a 60° C. oven to dry for 72 hours. Tissues were weighed again after drying to determine the wet-to-dry lung weight ratio.

[4] = 100 nM SF4, 250 mM amodiaquine, 250 mM triazolothiadiazoles
[5] = 2 hours after transplant, vs untreated control and heparin-pretreated lungs

With `CCN(CC)Cc1cc(Nc2ccnc3cc(Cl)ccc23)ccc1O` [Amodiaquine, amodiaquine] the “Relative mRNA expression (compared to control) Bax” value ([1]; 100 nM SF4) was 0.71, the “Relative mRNA expression (compared to control) Bcl-xl” value [1, 4] was 1.30 and the “Relative mRNA expression (compared to control) HO-1” value [1, 4] was 2.94. The “Relative mRNA expression (compared to control) IL6” value [1, 4] was 13.55, the “Relative mRNA expression (compared to control) MCP1” value [1, 4] was 3.45 and the “β-D-glucuronidase activity, dose response” value (heparanase (HPSE)) was “dose-dependent”.

In the case of `O=C(O)Cc1ccc2oc(-c3ccc(NC(=O)/C=C/c4ccc(Br)cc4)c(F)c3)nc2c1` [OGT-2113], the “β-D-glucuronidase activity, dose response” value (heparanase (HPSE)) is reported as “dose-dependent”.

With `Cl.O=C(O)[C@H]1CN[C@H](NC(=O)C(F)(F)F)[C@@H](O)[C@H]1O` [SF4, (3S,4S,5R,6R)-4,5-dihydroxy-6-[(2,2,2-trifluoroacetyl)amino]piperidine-3-carboxylic acid] the “IL-1β mRNA expression” value ([2]; lung tissue after 4-hours EVLP) was “significantly downregulated”, the “IL-6 mRNA expression” value ([2]; lung tissue after 4-hours EVLP) was “significantly downregulated” and the “TNF-α mRNA expression” value ([2]; lung tissue after 4-hours EVLP) was “significantly downregulated”. The “IκB-α expression (western blot)” value ([2]; lung tissue after 4-hours EVLP, vs control and heparin groups) was “significantly stabilized”, the “HPSE1 mRNA expression” value ([2]; lung tissue after 4 hours of EVLP, vs sham) was “not altered” and the “syndecan-1 immunofluorescent staining of lung endothelial lumen” value ([3]; after 4-hours EVLP, vs controls and heparin-treated) was “significantly increased staining”. For the same compound, the “syndecan-1 concentration in EVLP perfusate” value ([3]; after 4 hours EVLP, SF4 vs heparin-treated, heparin vs controls) was “significantly lower”, the “GAGs content in EVLP perfusate” value ([3]; at 4-hours EVLP, vs controls) was “significantly reduced” and the “H&E histology of grafts” value (rat lung grafts; 2 hours after transplant following 4 hours of EVLP) was “reduced swollen alveolar walls, congestion in the blood vessels, and fluid leaks”. For the same compound, the “IL-1β mRNA expression” value (rat lung grafts; [5]) was “significantly lower”, the “IL-6 mRNA expression” value (rat lung grafts; [5]) was “significantly lower” and the “TNF-α mRNA expression” value (rat lung grafts; [5]) was “significantly lower”. The “dynamic lung compliance (Cdyn) during EVLP” value (rat lungs; 4-hour EVLP, vs control) was “neither heparin nor SF4 altered Cdyn” and the “Evans blue dye (EBD) accumulation in lung tissue” value (rat lungs; after 4-hours EVLP) was “markedly decreased”.
